Source: patent US8487079B2, “Use of mitochondria-targeted electron scavengers as anti-inflammatory agents” (University of Pittsburgh—Of the Commonwealth System of …, priority 2007, dated 2013)

Tests used:
[1] = tested on: iNOS mRNA in RAW 264.7 cells; assay: iNOS mRNA expression in LPS-stimulated RAW 264.7 cells (real-time RT-PCR); assay type: cell-based, mouse; settings: LPS 100 ng/ml, 24 hours; for LPS-induced iNOS mRNA up-regulation: RT-PCR
Experimental: RAW 264.7 cells and liver tissue specimens were lysed with TRI-Reagent® (Molecular Research Center, Cincinnati, Ohio). Bromochloropropane (0.5 mL) was added in order to extract total RNA. After vigorous agitation and centrifugation (4° C., 12,000 g, 12 min), the aqueous phase containing RNA was collected. The RNA was precipitated with isopropanol (0.5 mL). The pellet was washed with 75% ethanol (1 mL) and centrifuged (4° C., 12,000 g, 5 min) twice, and then dissolved in RNA-free water. Total RNA was quantified using UV spectrophotometry (GeneQuant™ pro, GE Healthcare). Extracted RNAs (1 μg/reaction) were converted to single-strand cDNAs in a 20 μL volume reaction, using the Reverse Transcriptase System Kit (Promega, Madison, Wis.) as directed by the manufacturer. In a Gene Amp® PCR System 9700 (Applied Biosystems, Foster City, Calif.), the mixture was heated to 70° C. for 10 min, maintained at 42° C. for 30 min, and then heated to 95° C. for 5 min to terminate the reaction. TaqMan® Gene Expression Assays (Applied Biosystems) for 18S (endogenous control) and mouse iNOS were used. Reaction mixtures for PCR were assembled as follows: 10 μL TaqMan® Universal PCR Master Mix (Applied Biosystems), 1 μL of each assay, 5 μL cDNA template, and 3 μL of water. PCR reactions were performed in a thermocycler 7300 Real Time PCR System (Applied Biosystems) under recommended conditions (50° C. for 2 min; 95° C. for 10 min; 95° C. for 15 s; 60° C. for 1 min). The two last steps were repeated for 40 cycles. […] The ΔC^T relative quantification method was used to calculate mRNA levels for iNOS in the samples, as previously described (Scharte M, Han X, Bertges D J et al. Cytokines induce HIF-1 DNA binding and the expression of HIF-1-dependent genes in cultured rat enterocytes. Am J Physiol Gastrointest Liver Physiol 2003, 284:G373-G384). […]
RAW 264.7 cells were incubated in presence or absence of graded concentrations of XJB-5-131 or XJB-5-208. […] After 24 hours, steady-state levels of iNOS mRNA were measured using real-time quantitative RT-PCR.

[2] = tested on: LPS-induced NO production in RAW 264.7 cells; assay: Nitric oxide secretion (nitrite assay) by LPS-stimulated RAW 264.7 cells; assay type: cell-based, murine; settings: for NO secretion by LPS-stimulated RAW 264.7 cells: graded concentrations, added 1 h before LPS, 24 hours
Experimental: RAW 264.7 cells were obtained from the American Type Culture Collection (Manassas, Va.). Cells were maintained in DMEM supplemented with 10% FBS, 100 units/ml penicillin, and 100 μg/ml streptomycin at 37° C. in a humidified incubator (5% CO2, 95% air). For stimulation experiments, cells were transferred to 24-well polystyrene culture plates (Corning Life Sciences, Corning, N.Y.) at 0.3 or 1×10^6 cells/well (depending on the experiment) in 1 ml of medium per well. After overnight incubation, the medium was removed and replaced with DMEM containing 0.25% FBS. Cells were stimulated by adding 0.1 μg/ml to 1 μg/ml Escherichia coli 0111:B4 lipopolysaccharide (LPS) in the presence or absence of graded concentrations of XJB-5-131 or XJB-5-208.
(§1) Nitrite (NO2^−) concentrations were measured in cell supernatants and blood serum as an indicator of nitric oxide (.NO) production, where .NO readily oxidize into nitrites (NO2^−) and nitrates (NO3^−). The total concentration of .NO was determined by reducing NO3^− to NO2^− using cadmium and detecting NO2^− using the Greiss reagent and potassium nitrite as a standard.
(§2) Samples (200 μL) were incubated with 30% zinc sulfate to precipitate proteins and then centrifuged (4° C., 12,000 g, 5 min). Supernatants were added to 0.6 g activated cadmium (previously washed twice with each deionized H2O, 0.1 M HCl, and 0.1 NH4OH) and allowed to shake overnight at room temperature. The supernatants were removed. Greiss reagent (100 μL) was mixed with an equal volume of supernatant. Reaction between the Greiss reagent and NO2^−) yielded an azo dye that can be detected spectrophotometrically. Absorbance was measured at 550 nm using a Packard Fusion™ microplate reader (PerkinElmer, Wellesley, Mass.).
RAW 264.7 murine macrophage-like cells were incubated in the presence or absence of graded concentrations of XJB-5-131 or XJB-5-208. Concentrations of either XJB-5-131 or XJB-5-208 were dissolved in dimethyl sulfoxide (DMSO). During these experiments, the highest concentration of DMSO remaining in the cell culture was 0.18% (v/v). […]

[3] = tested on: HMGB1 secretion by RAW 264.7 cells; assay: HMGB1 secretion by LPS-stimulated RAW 264.7 cells (Western blot); assay type: cell-based, murine; settings: LPS 1 μg/ml, 48 or 72 h, Western blot of supernatant
Experimental: Equal volumes of cell culture supernatants were mixed with Laemmli buffer (20% glycerol, 10% beta-mercaptoethanol, 5% SDS, 0.2 M Tris.HCl, pH 6.8, and 0.4% bromophenol blue). After boiling for 10 min, the samples were subjected to 10% SDS-polyacrylamide gel electrophoresis. The resolved proteins were transferred to Hybond™-P polyvinylidene difluoride membranes (GE Healthcare, Chalfont St. Giles, UK), and blocked with bovine lacto-transfer optimizer buffer (1×PBS, 5% nonfat milk, and 0.05% Tween® 20) for 1 h. The membranes were incubated overnight at 4° C. with a 1:2000 dilution of rabbit polyclonal anti-HMGB1 antibody (generously provided by Dr. Michael T. Lotze, University of Pittsburgh) in blocking buffer. After washing three times in 1×PBST (1×PBS with 0.3% Triton X-100), immunoblots were exposed at room temperature for 1 h to a 1:20,000 dilution of horseradish peroxidase-conjugated goat anti-rabbit secondary antibody (Sigma-Aldrich, St. Louis, Mo.). After washing three times with 1×PBST, the membranes were illuminated with the ECL Plus™ substrate (GE Healthcare) and the X-ray films exposed, according to the manufacturer's instructions.
RAW 264.7 cells were cultured in the absence or presence of LPS (1 μg/ml). Some cells were co-incubated with graded concentrations of XJB-5-131. […]

[4] = tested on: iNOS mRNA in hepatic tissue of LPS-challenged mice; assay: Hepatic iNOS mRNA expression in LPS-challenged mice; assay type: in vivo; settings: 2 μmol/kg 1 h before i.p. LPS 15 mg/kg, 24 h after LPS, RT-PCR
Experimental: RAW 264.7 cells and liver tissue specimens were lysed with TRI-Reagent® (Molecular Research Center, Cincinnati, Ohio). Bromochloropropane (0.5 mL) was added in order to extract total RNA. After vigorous agitation and centrifugation (4° C., 12,000 g, 12 min), the aqueous phase containing RNA was collected. The RNA was precipitated with isopropanol (0.5 mL). The pellet was washed with 75% ethanol (1 mL) and centrifuged (4° C., 12,000 g, 5 min) twice, and then dissolved in RNA-free water. Total RNA was quantified using UV spectrophotometry (GeneQuant™ pro, GE Healthcare). Extracted RNAs (1 μg/reaction) were converted to single-strand cDNAs in a 20 μL volume reaction, using the Reverse Transcriptase System Kit (Promega, Madison, Wis.) as directed by the manufacturer. […] The ΔC^T relative quantification method was used to calculate mRNA levels for iNOS in the samples, as previously described (Scharte M, Han X, Bertges D J et al. Cytokines induce HIF-1 DNA binding and the expression of HIF-1-dependent genes in cultured rat enterocytes. Am J Physiol Gastrointest Liver Physiol 2003, 284:G373-G384). […]
Mice were randomly pretreated with a solution containing XJB-5-131 (2 μmol/kg) or a similar volume (2 ml/kg) of vehicle, a 67:33 (v/v) mixture of DMSO and normal saline. […] Subsequently, iNOS mRNA expression was measured, using quantitative real-time RT-PCR. […]

[5] = tested on: C57B1/6J mice challenged with LPS; assay: Plasma nitrite/nitrate in LPS-challenged mice; assay type: in vivo; parameters: unit not given here; settings: 2 μmol/kg 60 min before i.p. LPS 15 mg/kg, blood 24 h after LPS, LPS alone 321.8±70.1, control 41.8±7.0, mean±SEM, p<0.05
Experimental: as §1, §2
All experiments using mice followed the guidelines for the use of experimental animals of the U.S. National Institutes of Health and were approved by the Institutional Animal Care and Use Committee at the University of Pittsburgh. […]

Row | Compound | Potency in inhibiting LPS-induced iNOS up-regulation, relative to XJB-5-208 [1] | LPS-induced iNOS mRNA up-regulation [1] | IC50 ([2]; Mus musculus, RAW264.7, 24 h, RAW 264.7 cells, LPS 100 or 1000 ng/ml, NO2- plus NO3- in supernatant, approximate, read-out: IC50 for inhibition of LPS-induced NO production) [nM] | NO secretion by LPS-stimulated RAW 264.7 cells [2] | LPS-induced HMGB1 secretion [3] | iNOS expression in liver samples [4] | concentration of nitrites within blood plasma [5]
1 | CC(C)C[C@@H](/C=C/[C@H](Cc1ccccc1)C(=O)N1CCC[C@H]1C(=O)N[C@H](C(=O)N[C@@H](CCCNC(=O)OCc1ccccc1)C(=O)NC1CC(C)(C)N([O])C(C)(C)C1)C(C)C)NC(=O)OC(C)(C)C [XJB-5-131, N-Boc-Leu-[(E)-CH═CH]-^DPhe-Pro-Val-Orn(Cbz)-N-TEMPO] | more potent | inhibited LPS-induced iNOS up-regulation | ~3000 | significantly reduced | inhibited LPS-induced HMGB1 secretion in a concentration-dependent fashion | attenuated iNOS expression in liver samples | 179.5±34.6
2 | N-Boc-Leu-[(E)-CH═CH]-^DPhe-N-TEMPO [XJB-5-208] |  | inhibited LPS-induced iNOS up-regulation |  | significantly reduced |  |  | 
